US5032594A, “Tricyclic fused pyrimidine derivatives, their production and use” (Takeda Chemical Industries, Ltd., priority 1989, dated 1991)
Like-named read-outs stand apart in the source and are kept apart here.

What was measured:
[1] = test system: Retention deficit induced by scopolamine; test: Passive avoidance task, retention deficit induced by scopolamine; assay type: in vivo, mice; settings: scopolamine 1 mg/kg i.p.; for recovery of memory: orally administered 5% gum arabic suspension, in words; for Avoidance Time (%): p.o., 3 mg/kg, percent change rate relative to control (100), P < 0.05
Description: Actions of the compound (8) obtained in Working Example 8 and the compound (9) obtained in Working Example 9 on amelioration of memory impairment was studied using the passive avoidance task shown below. Five-week old male mice were placed first in the light chamber of a passive avoidance learning apparatus consisting of light and dark chambers. The mice immediately moved into the dark chamber, then an unescapable electric shock (0.5 mA, 3 sec.) was applied to the animals. These animals retained for several weeks the memory that they received the electric shock. This memory retention was disrupted by the following procedure, and the effect of the compounds (8) and (9) was tested. Thirty minutes prior to the application of electric shock, these animals were each administered with scopolamine (1 mg/kg, i.p), then these mice lost the memory of this experience of an electric shock.
On the following day, a retention recovery test was conducted. These mice were again placed in the light chamber of the passive avoidance apparatus and the time until the animals moved into the dark chamber (avoidance time) was measured. These mice which lost the memory of the experience of an electric shock moved again into the dark chamber in 10 to 20 seconds. […] The effects of these test compounds were examined by comparing the average value (11-15 animals/group) of the period of time during which the mice stayed in the light chamber with that of the control group (administered only a suspension of 5% gum arabic containing no test compound). The results were expressed by the percent change rate relative to the mean value (100) in the control group (Table 5).

[2] = test system: impaired learning after cerebral ischemia; test: Passive avoidance learning impaired after cerebral ischemia; assay type: in vivo, Wistar rats
Procedure: As in the case of the above test (3-1), Wistar rats were used to produce an experimental model for cerebral ischemia. In this experiment, the time during which cerebral ischemia was caused in the animals was 5 minutes. By this treatment, a passive avoidance learning impairments was induced. The passive avoidance learning was tested in accordance with the method in Experiment 1. The test compound was suspended in a 5% gum arabic vehicle. Test animals were administered with this suspension three times, i.e. one hour prior to causing cerebral ischemia, two hours prior to a passive avoidance learning and two hours prior to the test. The control group was administered with only a 5% gum arabic suspension.

[3] = test system: motility depression (depression of consciousness level) associated with cerebral ischemia; test: Recovery of motility after experimental cerebral ischemia; assay type: in vivo, Wistar rats; settings: for Time to reappearance of spontaneous motility: control 81.5 ± 13.3
Description: Experimental cerebral ischemia was produced in accordance with the method of Pulsinelli et al. (Stroke 10, 267-272, 1979), using Wistar rats 8-week old. On the first day of the experiment, the rats were anesthetized with pentobarbital, and their occipital skin and muscle were incised along the median line, then their vertebral arteries were cauterized bilaterally, and their ventral necks were incised, the bilateral common carotid arteries were separated from the surrounding tissue, to which a thread was applied. On the next day, the common carotid arteries were drawn out by the use of this thread under anaesthetic conditions, and occluded with clips for 30 minutes. By this treatment, serious cerebral ischemia was induced. After 30 minutes' occlusion, the clip was removed to allow the cerebral circulation to resume. Time to recovery of righting reflex and time to reappearance of spontaneous motor activity were measured on individual test animals. The test compound was orally administered to the animals as a 5% suspension in gum arabic one hour before causing the cerebral ischemia and immediately after the resumption of cerebral circulation. The control group was orally administered with only a 5% gum arabic suspension.

[4] = target: T1, A1 receptor (Rattus norvegicus, UniProt P25099); test: A1 receptor antagonism (inhibition of 3H-cyclohexyladenosine binding, rat cerebral cortex membranes)
T1 construct: a rat was decapitated, and the cerebral cortex (A1 receptor); from tissue; host or cells: rat cerebral cortex membranes
T1 sequence (P25099 1-326): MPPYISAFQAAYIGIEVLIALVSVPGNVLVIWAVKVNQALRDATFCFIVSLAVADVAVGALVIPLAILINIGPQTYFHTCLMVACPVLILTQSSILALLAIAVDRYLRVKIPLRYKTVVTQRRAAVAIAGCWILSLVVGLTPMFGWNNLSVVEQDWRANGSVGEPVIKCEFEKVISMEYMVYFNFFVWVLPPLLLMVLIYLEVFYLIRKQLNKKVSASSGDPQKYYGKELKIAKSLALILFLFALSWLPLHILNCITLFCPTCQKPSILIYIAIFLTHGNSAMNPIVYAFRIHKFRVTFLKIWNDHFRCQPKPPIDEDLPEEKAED
Procedure: (§1) Preparation of membranes was performed in accordance with the method of Burns et al. described in Proc. Natl. Acad. Sci., 77, 5547 (1980). More specifically, a rat was decapitated, and the cerebral cortex (A1 receptor) or corpus striatun (A2 receptor) was suspended using Polyton in a Tris-HCl buffer solution of pH 7.7 (50 mM, 20 ml). This suspension was centrifuged at 48,000 g for 10 minutes, and the pellet was resuspended and centrifuged in a similar manner. The pellet was resuspended in a Tris-HCl buffer solution (50 mM), to which was added adenosine deaminase (2U/ml). The mixture was incubated at 37° C. for 30 minutes. This suspension was centrifuged and the pellet was stored at -20° C.
(§2) Using the above-mentioned pellet, adenosine antagonism (A1 and A2) was examined.
The above-mentioned pellet was thawed at room temperature and suspended in a Tris-HCl buffer solution. To the suspension (0.9 ml) were added ^3 H-cyclohexyladenosine (^3 H-CHA)(ca. 0.05 μCi, 0.1 ml) and the test drug (10 μl), and the mixture was incubated at 25° C. for 60 minutes. The reaction mixture was subjected to filtration with GF/B filter. The filter was washed four times with a Tris-HCl buffer solution. The radioactivity on the filter was measured by liquid scintillation. The nonspecific binding amount was measured in the presence of 10^-5 M of L-phenyl isopropyladenosine.

[5] = target: T2, A2 receptor (Rattus norvegicus, UniProt P30543); test: A2 receptor antagonism (inhibition of 3H-NECA binding, rat corpus striatum membranes); settings: in presence of 50 nM cyclopentyladenosine, read-out: A2 receptor (Ki, μM), binding-inhibition constant
T2 construct: corpus striatun (A2 receptor); from tissue; host or cells: rat corpus striatum membranes
T2 sequence (P30543 whole entry): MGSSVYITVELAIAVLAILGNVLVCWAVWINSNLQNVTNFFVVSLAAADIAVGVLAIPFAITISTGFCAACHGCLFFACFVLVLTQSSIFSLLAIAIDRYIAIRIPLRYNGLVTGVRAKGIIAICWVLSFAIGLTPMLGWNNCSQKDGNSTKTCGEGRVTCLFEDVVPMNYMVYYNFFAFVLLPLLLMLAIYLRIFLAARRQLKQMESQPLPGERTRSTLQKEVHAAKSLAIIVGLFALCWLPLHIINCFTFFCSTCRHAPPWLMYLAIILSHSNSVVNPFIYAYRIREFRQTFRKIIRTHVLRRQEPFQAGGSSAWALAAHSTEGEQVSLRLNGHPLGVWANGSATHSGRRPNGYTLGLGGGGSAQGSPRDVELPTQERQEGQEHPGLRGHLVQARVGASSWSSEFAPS
Procedure: as §1, §2
The experiment was performed analogously to that for A1 receptor antagonism. Using ^3 H-adenosine-5'-ethylcarboxamide (^3 H-NECA; about 0.1 μCi) as ligand, the experiment was conducted in the presence of 50 nM of cyclopentyladenosine. The nonspecific binding amount was measured in the presence of 10^-4 M of cyclopentyladenosine.

[6] = rat cerebral cortex, 3H-CHA, 25° C., 60 minutes, read-out: A1 receptor (Ki, μM), binding-inhibition constant

Ki [4, 6] [µM]	Ki [5] [µM]	Structure (SMILES)	other results
		CCCn1c(=O)c2c(nn3cc[nH]c23)n(Cc2ccccc2)c1=O [Working Example 8, 1-Benzyl-3-propyl-1,2,3,4-tetrahydro-5H-imidazo[2',1':5,1]pyrazolo[3,4-d]pyrimidine-2,4-dione]	recovery of memory [1]: recovered the memory; Avoidance time ([2]; 3 mg/kg and 10 mg/kg, in words): prolonged the avoidance time, in the doses of 3 mg/kg and 10 mg/kg, dose-dependently; Avoidance time ([2]; 3 mg/kg, 5 minutes ischemia, median, control 17.5): 152.8 s; Avoidance time ([2]; 10 mg/kg, 5 minutes ischemia, median, control 17.5, P < 0.05): 285.9 s; Time to recovery of righting reflex ([3]; 3 mg/kg oral, 30 minutes occlusion, average ± standard error, control 29.8 ± 5.9): 21.0 ± 3.2 min; Time to reappearance of spontaneous motility ([3]; 3 mg/kg oral, 30 minutes occlusion, average ± standard error): 55.2 ± 6.5 min; Time to recovery of righting reflex ([3]; 10 mg/kg oral, 30 minutes occlusion, average ± standard error, control 29.8 ± 5.9): 16.7 ± 2.6 min; Time to reappearance of spontaneous motility ([3]; 10 mg/kg oral, 30 minutes occlusion, average ± standard error, P < 0.05): 43.8 ± 4.7 min; Time to recovery of righting reflex ([3]; in words): tended to shorten the time to recovery of righting reflex dosedependently; time to reappearance of spontaneous motor activity ([3]; in words): shortened the time to reappearance of spontaneous motor activity
		CCCn1c(=O)c2c(nn3cc[nH]c23)n(Cc2ccc(Cl)cc2)c1=O [Working Example 9]	recovery of memory [1]: recovered the memory
0.12	3.3	CCCn1c(=O)c2c3n(nc2n(Cc2ccccc2)c1=O)CCN3 [compound 1]	
0.14	2.9	CCCn1c(=O)c2c3n(nc2n(Cc2ccc(Cl)cc2)c1=O)CCN3 [compound 2]	
0.19	4.2	CCCn1c(=O)c2c3n(nc2n(Cc2cccc(Cl)c2)c1=O)CCN3 [compound 3]	
0.27	6.5	CCCn1c(=O)c2c3n(nc2n(Cc2ccccc2Cl)c1=O)CCN3 [compound 4]	
0.67	4.5	CCCCn1c(=O)n(Cc2ccccc2)c(=O)c2c3n(nc21)CCN3 [compound 5]	
0.034	0.26	CCCn1c(=O)c2c(nn3cc[nH]c23)n(Cc2ccccc2)c1=O [compound 8]	Avoidance Time (%) [1]: 243%
0.05	0.37	CCCn1c(=O)c2c(nn3cc[nH]c23)n(Cc2ccc(Cl)cc2)c1=O [compound 9]	Avoidance Time (%) [1]: 262%
0.098	0.46	CCCn1c(=O)c2c(nn3cc[nH]c23)n(Cc2cccc(Cl)c2)c1=O [compound 10]	
0.092	1	CCCn1c(=O)c2c(nn3cc[nH]c23)n(Cc2ccccc2Cl)c1=O [compound 11]	
0.2	1.1	CCCCn1c(=O)n(Cc2ccccc2)c(=O)c2c1nn1cc[nH]c21 [compound 12]	
0.53	16	CCCn1c(=O)c2c(nn3cc[nH]c23)n(CCc2ccccc2)c1=O [compound 13]	
0.11	2.5	CCCn1c(=O)c2c(nn3cc[nH]c23)n(CCCc2ccccc2)c1=O [compound 14]	
0.01	0.28	CCCn1c(=O)c2c(nn3cc(-c4ccccc4)[nH]c23)n(Cc2ccccc2)c1=O [compound 15]	
0.024	0.43	CCCn1c(=O)c2c(nn3c(C)c(C)[nH]c23)n(Cc2ccccc2)c1=O [compound 16]	
0.0051	0.35	CCCCc1cn2nc3c(c(=O)n(CCC)c(=O)n3Cc3ccccc3)c2[nH]1 [compound 17]	
0.027	0.19	CCCn1c(=O)c2c(nn3c4c([nH]c23)CCCC4)n(Cc2ccccc2)c1=O [compound 19]	
0.0069	0.12	CCCn1c(=O)c2c(nn3cc(-c4cccc(OC)c4)[nH]c23)n(Cc2ccccc2)c1=O [compound 21]	
0.0047	0.21	CCCn1c(=O)c2c(nn3cc(-c4ccc(OC)cc4)[nH]c23)n(Cc2ccccc2)c1=O [compound 22]	
0.53	0.5	CCCn1c(=O)c2c(nn3cc(-c4ccccc4OC)[nH]c23)n(Cc2ccccc2)c1=O [compound 23]	
0.053	> 0.5	CCCCOc1ccc(-c2cn3nc4c(c(=O)n(CCC)c(=O)n4Cc4ccccc4)c3[nH]2)cc1 [compound 24]	
0.58	> 0.5	CCCn1c(=O)c2c(nn3cc(-c4ccc(C)cc4)[nH]c23)n(Cc2ccccc2)c1=O [compound 25]	
0.037	> 0.5	CCCn1c(=O)c2c(nn3cc(-c4cccc(Cl)c4)[nH]c23)n(Cc2ccccc2)c1=O [compound 26]	
0.58	> 0.5	CCCn1c(=O)c2c(nn3cc(-c4ccccc4Cl)[nH]c23)n(Cc2ccccc2)c1=O [compound 27]	
18	39	CCCCn1c(=O)[nH]c(=O)c2c3n(nc21)CCN3 [compound 29]	
	0.42	CCCn1c(=O)[nH]c2nn3cc[nH]c3c2c1=O [compound 30]	Ki [4]: 0.42 µM
